Key:
[1] = target: C-C chemokine receptor type 5 (Homo sapiens, UniProt P51681); assay type: cell membranes, Membrane; settings: hek293; further: in other assays of this panel Not Active means under 50% inhibition at 10 µM
[2] = DRUGMATRIX: Calcium Channel Type L, Benzothiazepine radioligand binding (ligand: [3H] Diltiazem); assay type: cell membranes, Rattus norvegicus, Wistar, Brain, Membrane; settings: Not Active = under 50% inhibition at 10 µM
[3] = DRUGMATRIX: ATPase, Na+/K+ enzyme inhibition (substrate: ATP); assay type: tissue-based, Sus scrofa, Heart; settings: Not Active = under 50% inhibition at 10 µM
Vasopressin V1a receptor = Vasopressin V1a receptor (Homo sapiens, UniProt P37288); assay type: cell membranes, Membrane; settings: hek293; further: in other assays of this panel Not Active means under 50% inhibition at 10 µM
Sequence of Vasopressin V1a receptor (P37288 whole entry): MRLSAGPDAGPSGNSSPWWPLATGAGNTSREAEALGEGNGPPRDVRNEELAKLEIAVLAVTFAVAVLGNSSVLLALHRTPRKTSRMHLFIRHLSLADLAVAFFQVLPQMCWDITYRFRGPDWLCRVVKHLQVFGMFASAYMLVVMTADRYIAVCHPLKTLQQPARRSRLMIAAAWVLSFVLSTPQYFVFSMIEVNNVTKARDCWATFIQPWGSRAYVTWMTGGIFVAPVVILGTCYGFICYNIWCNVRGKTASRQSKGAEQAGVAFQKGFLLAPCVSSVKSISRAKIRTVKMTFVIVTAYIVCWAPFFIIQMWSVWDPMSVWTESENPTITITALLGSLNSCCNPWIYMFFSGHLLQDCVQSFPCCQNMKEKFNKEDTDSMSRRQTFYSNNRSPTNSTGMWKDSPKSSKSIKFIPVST

[4] = target: T1, Alpha-1D adrenergic receptor (Homo sapiens, UniProt P25100); assay type: cell membranes, HEK293, Membrane; settings: hek293; further: in other assays of this panel Not Active means under 50% inhibition at 10 µM
T1 sequence (P25100 whole entry): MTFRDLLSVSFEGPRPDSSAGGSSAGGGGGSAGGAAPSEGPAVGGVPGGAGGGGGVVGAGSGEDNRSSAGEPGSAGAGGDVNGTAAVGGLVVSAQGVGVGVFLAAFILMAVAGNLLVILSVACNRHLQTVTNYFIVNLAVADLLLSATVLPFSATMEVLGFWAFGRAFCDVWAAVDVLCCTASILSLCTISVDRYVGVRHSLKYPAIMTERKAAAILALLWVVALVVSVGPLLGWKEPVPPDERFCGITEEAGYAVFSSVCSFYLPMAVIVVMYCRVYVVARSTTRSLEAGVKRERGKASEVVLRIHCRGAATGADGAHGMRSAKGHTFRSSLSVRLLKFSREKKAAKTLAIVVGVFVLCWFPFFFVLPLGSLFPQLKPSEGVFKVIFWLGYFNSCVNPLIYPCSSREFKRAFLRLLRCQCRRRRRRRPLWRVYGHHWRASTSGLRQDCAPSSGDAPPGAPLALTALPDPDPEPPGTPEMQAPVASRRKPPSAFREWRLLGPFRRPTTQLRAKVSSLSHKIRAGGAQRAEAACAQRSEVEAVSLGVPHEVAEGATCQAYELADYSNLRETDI

[5] = target: Protein kinase C alpha type (Homo sapiens, UniProt P17252); assay type: cell-based; settings: sf9;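 further: inhibition of PKCalpha kinase activity measured in an enzyme assay with histone as the phosphorylation substrate; in other assays of this panel Not Active means under 50% inhibition at 10 µM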
[6] = target: Sodium-dependent dopamine transporter (Homo sapiens, UniProt Q01959); assay: DRUGMATRIX: Dopamine Transporter radioligand binding (ligand: [125I] RTI-55); assay type: cell membranes, CHO-K1, Membrane; settings: cho-k1; Not Active = under 50% inhibition at 10 µM
Sequence of Sodium-dependent dopamine transporter (Q01959 whole entry): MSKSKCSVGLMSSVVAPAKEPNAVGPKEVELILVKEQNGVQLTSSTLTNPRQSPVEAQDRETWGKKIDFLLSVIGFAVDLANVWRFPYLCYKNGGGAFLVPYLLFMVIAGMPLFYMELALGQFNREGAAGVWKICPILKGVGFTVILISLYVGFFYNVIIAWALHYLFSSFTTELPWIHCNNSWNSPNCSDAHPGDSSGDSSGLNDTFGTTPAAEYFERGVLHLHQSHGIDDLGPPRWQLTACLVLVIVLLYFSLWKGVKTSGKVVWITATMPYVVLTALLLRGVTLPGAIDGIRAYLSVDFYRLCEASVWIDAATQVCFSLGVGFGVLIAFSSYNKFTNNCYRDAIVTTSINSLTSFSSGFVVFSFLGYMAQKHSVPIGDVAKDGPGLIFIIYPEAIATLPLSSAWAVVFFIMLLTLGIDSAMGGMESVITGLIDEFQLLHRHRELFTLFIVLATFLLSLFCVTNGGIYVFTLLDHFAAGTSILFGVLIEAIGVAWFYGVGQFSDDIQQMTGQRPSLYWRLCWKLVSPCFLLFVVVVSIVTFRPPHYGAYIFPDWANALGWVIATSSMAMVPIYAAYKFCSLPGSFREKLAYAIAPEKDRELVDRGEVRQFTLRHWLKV

Histamine H2 receptor = Histamine H2 receptor (Homo sapiens, UniProt P25021); assay type: cell membranes, CHO-K1, Membrane; settings: cho-k1; further: in other assays of this panel Not Active means under 50% inhibition at 10 µM
Sequence of Histamine H2 receptor (P25021 whole entry): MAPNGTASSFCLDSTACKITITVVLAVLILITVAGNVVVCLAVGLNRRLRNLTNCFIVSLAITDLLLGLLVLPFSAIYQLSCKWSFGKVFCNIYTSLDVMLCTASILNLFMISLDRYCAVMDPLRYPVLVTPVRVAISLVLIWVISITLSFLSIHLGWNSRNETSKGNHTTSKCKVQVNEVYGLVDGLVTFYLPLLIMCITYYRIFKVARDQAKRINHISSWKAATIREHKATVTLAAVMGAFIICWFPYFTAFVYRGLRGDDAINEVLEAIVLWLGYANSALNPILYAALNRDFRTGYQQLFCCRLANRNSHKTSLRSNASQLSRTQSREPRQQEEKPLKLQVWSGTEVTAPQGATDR

[7] = target: Tyrosine-protein kinase Fyn (Homo sapiens, UniProt P06241); assay: biochemical; assay type: cell-based, Insect cells; settings: insect cells
Sequence of Tyrosine-protein kinase Fyn (P06241 whole entry): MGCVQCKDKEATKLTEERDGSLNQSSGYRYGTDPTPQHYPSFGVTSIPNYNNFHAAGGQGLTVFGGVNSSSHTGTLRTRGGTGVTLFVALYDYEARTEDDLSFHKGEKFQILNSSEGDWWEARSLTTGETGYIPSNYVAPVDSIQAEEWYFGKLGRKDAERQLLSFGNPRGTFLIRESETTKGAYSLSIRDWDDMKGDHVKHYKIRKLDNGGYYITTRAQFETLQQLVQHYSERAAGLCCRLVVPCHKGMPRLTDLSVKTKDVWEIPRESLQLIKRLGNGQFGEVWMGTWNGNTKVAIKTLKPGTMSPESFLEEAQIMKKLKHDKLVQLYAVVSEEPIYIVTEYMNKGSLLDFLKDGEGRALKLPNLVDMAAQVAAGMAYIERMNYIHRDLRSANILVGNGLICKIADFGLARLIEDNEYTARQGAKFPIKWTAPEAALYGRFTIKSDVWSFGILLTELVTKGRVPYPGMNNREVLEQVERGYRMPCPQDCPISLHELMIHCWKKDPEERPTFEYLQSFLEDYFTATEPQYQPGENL

[8] = target: T2, Alpha-1A adrenergic receptor (Rattus norvegicus, UniProt P43140); assay: DRUGMATRIX: Alpha-1A adrenergic receptor radioligand binding (ligand: prazosin); assay type: cell membranes, Wistar, Submaxillary gland, Membrane; settings: Not Active = under 50% inhibition at 10 µM
T2 sequence (P43140 whole entry): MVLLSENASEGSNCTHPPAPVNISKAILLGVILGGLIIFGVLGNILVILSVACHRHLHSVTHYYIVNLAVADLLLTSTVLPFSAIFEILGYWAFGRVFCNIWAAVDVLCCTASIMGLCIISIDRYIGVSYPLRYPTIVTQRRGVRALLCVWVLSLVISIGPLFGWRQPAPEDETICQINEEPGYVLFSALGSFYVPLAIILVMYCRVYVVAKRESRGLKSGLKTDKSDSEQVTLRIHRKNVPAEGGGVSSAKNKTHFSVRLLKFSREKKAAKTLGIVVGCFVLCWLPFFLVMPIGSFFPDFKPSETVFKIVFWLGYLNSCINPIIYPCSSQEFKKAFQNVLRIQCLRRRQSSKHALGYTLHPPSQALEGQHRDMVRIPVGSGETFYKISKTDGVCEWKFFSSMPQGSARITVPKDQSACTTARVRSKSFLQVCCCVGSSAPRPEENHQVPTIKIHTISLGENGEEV

[9] = target: cGMP-specific 3',5'-cyclic phosphodiesterase (Homo sapiens, UniProt O76074); assay: DRUGMATRIX: Phosphodiesterase PDE5 enzyme inhibition (substrate: [3H]cGMP + cGMP); assay type: tissue-based, Platelet; settings: platelet; Not Active = under 50% inhibition at 10 µM
Cathepsin G = target: T3, Cathepsin G (Homo sapiens, UniProt P08311); assay type: tissue-based; settings: neutrophil
T3 sequence (P08311 whole entry): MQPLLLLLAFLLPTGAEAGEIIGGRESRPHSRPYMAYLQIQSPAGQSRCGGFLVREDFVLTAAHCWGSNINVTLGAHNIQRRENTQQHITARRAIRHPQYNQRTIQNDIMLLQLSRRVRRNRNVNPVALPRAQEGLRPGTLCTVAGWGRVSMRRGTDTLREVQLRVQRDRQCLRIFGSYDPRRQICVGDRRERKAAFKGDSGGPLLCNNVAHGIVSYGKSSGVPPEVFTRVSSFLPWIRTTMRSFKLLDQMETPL

[10] = DRUGMATRIX: beta-Lactamase enzyme inhibition (substrate: Nitrocefin); set-up: species or system Bacillus cereus; settings: Not Active = under 50% inhibition at 10 µM
[11] = target: T4, 5-hydroxytryptamine receptor 1A (Rattus norvegicus, UniProt P19327); assay type: cell membranes, CHO-K1, Membrane; settings: cho-k1; further: in other assays of this panel Not Active means under 50% inhibition at 10 µM
T4 sequence (P19327 whole entry): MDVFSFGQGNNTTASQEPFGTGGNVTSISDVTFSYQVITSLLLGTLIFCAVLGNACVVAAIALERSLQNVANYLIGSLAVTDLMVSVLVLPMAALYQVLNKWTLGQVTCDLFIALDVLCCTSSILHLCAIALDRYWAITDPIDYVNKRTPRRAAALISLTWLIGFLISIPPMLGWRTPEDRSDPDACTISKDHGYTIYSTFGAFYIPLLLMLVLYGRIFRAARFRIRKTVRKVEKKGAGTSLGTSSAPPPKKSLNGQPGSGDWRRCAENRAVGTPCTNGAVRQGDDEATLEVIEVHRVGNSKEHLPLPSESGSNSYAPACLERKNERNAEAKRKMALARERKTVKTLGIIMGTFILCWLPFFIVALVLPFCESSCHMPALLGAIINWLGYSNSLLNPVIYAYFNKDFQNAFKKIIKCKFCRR

Sequence of C-C chemokine receptor type 5 (P51681 whole entry): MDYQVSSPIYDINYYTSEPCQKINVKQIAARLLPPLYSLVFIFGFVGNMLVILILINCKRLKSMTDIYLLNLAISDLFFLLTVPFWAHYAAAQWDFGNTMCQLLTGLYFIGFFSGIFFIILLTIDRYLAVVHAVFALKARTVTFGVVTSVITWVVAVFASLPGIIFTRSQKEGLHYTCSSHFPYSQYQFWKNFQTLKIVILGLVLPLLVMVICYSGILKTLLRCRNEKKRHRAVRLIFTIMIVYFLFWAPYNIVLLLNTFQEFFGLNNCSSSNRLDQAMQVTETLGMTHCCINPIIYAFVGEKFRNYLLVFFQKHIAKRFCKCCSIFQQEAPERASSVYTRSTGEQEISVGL

SMILES	IC50 [1]	IC50 [2]	Ki [2]	IC50 [3]	Ki [3]	IC50 (Vasopressin V1a receptor)	IC50 [4]	IC50 [5]	IC50 [6]	IC50 (Histamine H2 receptor)	IC50 [7]	IC50 [8]	IC50 [9]	IC50 (Cathepsin G)	IC50 [10]	Ki [10]	IC50 [11]	IC50 ([3]; read-out: IC50) [µM]
CCCCOC(=O)c1ccc(N)cc1 [BUTAMBEN]	Not Active	Not Active	Not Active	Not Active	Not Active	Not Active	Not Active	Not Active	Not Active	Not Active	Not Active	Not Active	Not Active	Not Active	Not Active	Not Active	Not Active	–
CC[C@@]1(O)C(=O)OCc2c1cc1n(c2=O)Cc2cc3ccccc3nc2-1 [CAMPTOTHECIN]	Not Active	Not Active	Not Active	Not Active	Not Active	Not Active	Not Active	Not Active	Not Active	Not Active	Not Active	Not Active	Not Active	Not Active	Not Active	Not Active	Not Active	–
COCc1c(C(C)C)nc(C(C)C)c(/C=C/[C@@H](O)C[C@@H](O)CC(=O)O)c1-c1ccc(F)cc1 [CERIVASTATIN]	Not Active	Not Active	Not Active	Not Active	Not Active	Not Active	Not Active	Not Active	Not Active	Not Active	Not Active	Not Active	Not Active	Not Active	Not Active	Not Active	Not Active	–
CC(=O)O[C@]1(C(C)=O)CC[C@H]2[C@@H]3C=C(Cl)C4=CC(=O)CC[C@]4(C)[C@H]3CC[C@@]21C [CHLORMADINONE ACETATE]	Not Active	Not Active	Not Active	–	–	Not Active	Not Active	Not Active	Not Active	Not Active	Not Active	Not Active	Not Active	Not Active	Not Active	Not Active	Not Active	4.57
O=C1CCc2cc(OCCCCc3nnnn3C3CCCCC3)ccc2N1 [CILOSTAZOL]	Not Active	Not Active	Not Active	Not Active	Not Active	Not Active	Not Active	Not Active	Not Active	Not Active	Not Active	Not Active	Not Active	Not Active	Not Active	Not Active	Not Active	–
O=C(O)c1cn(C2CC2)c2cc(N3CCNCC3)c(F)cc2c1=O [CIPROFLOXACIN]	Not Active	Not Active	Not Active	Not Active	Not Active	Not Active	Not Active	Not Active	Not Active	Not Active	Not Active	Not Active	Not Active	Not Active	Not Active	Not Active	Not Active	–

From ChEMBL document CHEMBL1909046, “DrugMatrix in vitro pharmacology data”
